≈ marks a conversion by molar mass, not a printed value. Read-outs that look alike come from different tables or passages of the source.
How the values were obtained:
[1] = pKa of the ligands by UV–vis titration; assay type: physicochemical; conditions: for pKa: 0.20 M KNO3, UV–vis, I = 0.20 M KNO3, 10 equiv. EDTA
Protocol: (§1) Physico-chemical properties such as aqueous solubility, lipophilicity, and the actual protonation state at a given pH are known to influence the pharmacokinetic behavior of a drug.
An Agilent Cary 8454 diode array spectrophotometer was utilized to obtain UV–vis spectra in the wavelength range 190–1100 nm. The path length (l) was 1 or 2 cm in most cases (the actual l is always indicated in the legends of the figures). The concentrations of the ligands and complexes were between 36 and 100 μM. The ligands were titrated in the presence of 10 equiv of EDTA. Individual samples contained 0–37 μM HSA, 0–206 μM MIM, 0–759 μM AHA, or 0–733 μM FHA. Spectra were always background and baseline corrected. The computer program HypSpec[64] was used to obtain stability constants.

[2] = test system: Colo320; assay: Cytotoxicity, Colo320; assay type: cell-based, human; conditions: this work
Source text: Supplementary Information
(11 pictures or pasted objects on this page, not shown here)

[3] = Thermodynamic aqueous solubility at pH 7.4; assay type: physicochemical; conditions: 10 mM HEPES buffer, thermodynamic from solid, pH 7.4 (10 mM HEPES), 25.0 °C, read-out: thermodynamic aqueous solubility S7.4
Protocol: The concentration of the compounds was determined by UV–vis spectrophotometry. For calibration, stock solutions of the compounds were used with known concentrations dissolved in 100% DMSO, 75% DMSO, and 50% (v/v) DMSO/buffered aqueous solutions.

[4] = test system: MES-SA/Dx5; conditions: monoculture, ref SI3, cited from earlier work
[5] = test system: MES-SA; conditions: monoculture, PrestoBlue; ref SI3; cited from earlier work
[6] = pKa of the ligands by 1H NMR titration; assay type: physicochemical; conditions: 0.20 M KNO3 with 10% (v/v) D2O, I = 0.20 M KNO3, 25.0 °C, read-out: pKa (OH)
Protocol: as §1
Bruker Avance III HD Ascend 500 Plus instrument (Billerica, MA, USA) was used for NMR studies. ^1H NMR spectroscopic measurements were carried out with a WATERGATE water suppression pulse scheme in the presence of 10% (v/v) D2O in most cases. DSS internal standard was added to samples to obtain reference peaks. ^1H NMR titrations were carried out in the presence of 0.20 M KNO3. The computer program HypSpec[64] was used to obtain equilibrium constants.

[7] = test system: A431; design: method as in earlier work; conditions: monoculture, 72 h, PrestoBlue; ref SI3; cited from earlier work
[8] = test system: A431-B1; design: method as in earlier work; conditions: monoculture, ref SI3, cited from earlier work
[9] = test system: MES-SA/Dx5; assay: Cytotoxicity in triple coculture, MES-SA/Dx5 eGFP; assay type: cell-based, human
Protocol: (§2) Cell lines were purchased from the American Type Culture Collection (ATCC). MES-SA/B1 is a human MDR1-transfected derivative of MES-SA, and MES-SA mCherry, MES-SA/B1 mOrange, and MES-SA/Dx5 eGFP were engineered to stably express the respective fluorescent proteins previously.[62] Cells were kept in culture medium (DMEM) supplemented with 10% fetal bovine serum, 2 mM L-glutamine, 100 units/mL penicillin, and 100 μg/mL streptomycin (Thermo Fisher). One week before use, MES-SA/Dx5 eGFP cells were treated with 0.5 μM doxorubicin to ensure ABCB1/P-gp expression.
(§3) The tested compounds were dissolved in 50% (v/v) DMSO/PBS’ buffer to prepare 5–10 mM stock solutions, which were diluted in complete culture medium. Constitutive expression of the fluorescent proteins allowed multiplexing in cytotoxicity experiments.[62] Cells were mixed before seeding in 384-well plates: in double cocultures, MES-SA mCherry and MES-SA/Dx5 eGFP cells were seeded at 1250–1250 cells/well (in total 2500 cells/well); while in triple cocultures, MES-SA mCherry, MES-SA/Dx5 eGFP and MES-SA/B1 mOrange cells were seeded at 800–800–800 cells/well (in total 2400 cells/well). Serial dilutions of the compounds were added 24 h after seeding. To address the effect of P-gp function, TQ was added at a nontoxic concentration (0.4 μM) 15 min before the test compounds. The intensity of the fluorescent proteins, which is proportional to cell mass, was measured after 144 h of incubation at the respective fluorescent channels (excitation/emission: eGFP: 485 nm/510 nm; mOrange: 545 nm/567 nm; mCherry: 585 nm/610 nm). pIC50 values were calculated by a custom program written by Judit Sessler in C#.[62] IC50 values and standard deviation were calculated from average pIC50 values from at least 3 independent measurements.

[10] = Ligand displacement with 2,2′-bipyridine, conditional formation constant; assay type: physicochemical; conditions: pH 7.4; bpy competitor; UV–vis
Source text: These pKa (H2O) values are lower than those of the complexes formed with the corresponding amino acid hybrids (HQCl-D-Pro, HQCl-D-hPro, Figure S23). Thus, the predominant complex at pH 7.4 is [M(arene)(HL)(H2O)]^2+ in all cases, in which the bidentate ligand coordinates via the (N,O^–) donor set and the pyridinium or pyrrolidinium nitrogens are protonated just like in the isolated complexes (Chart 3). Based on the unchanged spectra (vide supra), these types of complexes show no dissociation at pH = 2, indicating their high stability and hindering the direct determination of the formation constants. Therefore, a ligand displacement experiment was performed using UV–vis spectrophotometry with 2,2′-bipyridine (bpy) as a competitor to determine conditional formation constants at pH = 7.4 (Figure S25). […] Nevertheless, these values indicate a high stability of the complexes in solution, and <1% of dissociation is estimated at 1 μM concentration at pH = 7.4. The ligand displacement measurement could not be applied to the RuCym complexes due to the release of the p-cymene ring followed by the formation of the mixed ligand complex with bpy and oxidation of the metal center (Figure S26), similarly to analogue complexes.[14],[26],[27]

[11] = test system: MES-SA; assay: Cytotoxicity in triple coculture, MES-SA mCherry; assay type: cell-based, human; conditions: MES-SA/B1, MES-SA/Dx5, 144 h
Protocol: as §2, §3

Oc1c(CN2CCCCC2)cc(Cl)c2cccnc12 [HQCl-pip, 5-chloro-7-(piperidin-1-ylmethyl)quinolin-8-ol]
pKa ([1]; read-out: pKa (Npyr/pipH+)): 11.3 ± 0.12 | pKa ([1]; read-out: pKa (NqH+)): 2.09 ± 0.05 | pKa ([1]; read-out: pKa (OH)): 7.42 ± 0.03 | fraction of HL ([1]; pH 7.4, based on the pKa values): 42% | SR (Colo205 / Colo320) [2]: 2.4 | solubility thermodynamic [3]: 254 ± 3 µM (≈ 70.3 µg/mL) | IC50 ([4]; PrestoBlue): 290 ± 50 nM | SR (MES-SA / MES-SA/Dx5) ([4]; + 1 µM TQ): 1.31 | SR (MES-SA / MES-SA/Dx5) [4]: 8.71 | IC50 [5]: 2490 ± 390 nM | pKa [6]: 7.43 ± 0.02 | IC50 [7]: 6670 ± 1690 nM | IC50 ([8]; 72 h, PrestoBlue): 1690 ± 270 nM | SR (A431 / A431-B1) [8]: 3.96

[RhCp*(HQCl-Pip)Cl]Cl [(3)]
SR Dx5 = IC50 (MES-SA)/IC50 (MES-SA/Dx5) [9]: 11.1 | IC50 ([9]; 144 h): 190 nM | logK’ [M(arene)L]7.4 conditional formation constant [10]: 11.89 ± 0.03 | IC50 [11]: 2110 nM

Source: publication PMC11653257, “Organometallic Half-Sandwich Complexes of 8-Hydroxyquinoline-Derived Mannich Bases with Enhanced Solubility: Targeting Multidrug Resistant Cancer” (Inorganic Chemistry, 2024)
